{"source": "patent US8889411B2", "about": "“Modulation of stem and progenitor cell differentiation, assays, and uses thereof” (Anthrogenesis Corporation, priority 2002, dated 2014)", "key": {"[1]": {"system": "Human Cord Blood CD34+ Cells", "test": "FACS analysis of proliferation and differentiation of cord blood CD34+ cells cultured with IL3, G-CSF and Kit-ligand", "format": "cell-based", "conditions": "for CD11b+ Cell Population / CD34+CD38+ Cell Population / CD34+CD38− Cell Population: 7 days", "experimental": "CB CD34+ cells were initiated at 4×10^4 cells/ml in a 24-well plate in 20% FCS IMDM (fetal calf serum/Iscove's Modified Dulbecco's Medium) supplemented with cytokines (1 L3, GCSF and Kit-ligand) (R&D Systems, Inc.). Thalidomide (Thal), ACTIMID™ or REVIMID™ were included in the culture at three different concentrations: 5 μg/ml, 1 μg/ml and 0.3 μg/ml. The same volumes of DMSO were used as controls. A negative control without, any compound was also used (indicated by “none” in FIGS. 3-7). Cells were cultured at 37° C. and 5% CO2 in a humidified incubator for 7 days. Cells were then harvested from each well.\nThe total cell number from each well was determined by counting in a CELL-DYN® 1700 (Abbott Diagnostics) and the expression of CXCR4, CD45, CD34, CD38, CD 1 lb and Gly-A expression was analyzed by FACS (fluorescence-activated cell sorting) staining (FIGS. 3-7).\nCB cells from two different donors (CB2276 and CB2417) were cultured, assayed and analyzed separately (Table 1)."}, "[2]": {"system": "Cord blood CD34+ hematopoietic progenitor cells", "test": "Colony forming unit (CFU) generation from cord blood CD34+ cells", "format": "cell-based, human", "conditions": "IL-3, G-CSF, kit-ligand, vs DMSO", "experimental": "FIG. 1. Bar graph indicating results of culturing cord blood CD34+ cells in the presence of Thalidomide (THD), ACTIMID™, and REVIMID™ at concentrations of 1 μg/ml and 10 μg/ml. An equal volume of DMSO was used as a negative control. Hematopoietic colonies of burst forming units-erythroid (BFU-E), colony forming units-erythroid (CFU-E), colony forming units-granulocyte macrophage (CFU-GM) and total numbers of colonies (CFU-Total) were scored under the light microscope at day 14 of culture. Y-axis: numbers of colonies. See Section 6.1 for details.\nCord blood CD34+ hematopoietic progenitor cells were plated in 96 well cultivation dishes at a density of 1000 cells per well in IMDM supplemented with 20% fetal calf serum and cytokines (IL-3, G-CSF and kit-ligand (R&D Systems, Inc.) The cells were exposed to Thalidomide (Thal), ACTIMID™ and REVIMID™, or DMSO (a control compound), and allowed to culture for 6 days. […] After culturing, cells were stained and sorted with a fluorescence activated. cell sorter (FACS). 400 μL of stained cells were harvested and diluted to 1.0 ml with 1% fetal calf serum in phosphate buffered saline (PBS). Cells were counted to determine the effect of modulation of stem cell differentiation."}, "[3]": {"system": "adult SJL/L mice with bone marrow ablation by lethal irradiation", "test": "Transplantation of ACTIMID-pretreated nucleated cells into lethally irradiated mice", "format": "in vivo, mouse", "conditions": "for % Starting Body Weight at 50 days: irradiated mice", "experimental": "Placental nucleated cells (PLNC), umbilical cord blood nucleated cells (UCBNC) and bone marrow cells (BMNC) were obtained from human donors. PLNC and UCBNC were obtained from placenta and umbilical cord using methods described in Section 5.4 above.\nThe cells were pretreated by incubation in DMEM supplemented with 2% human CB serum with 10 µg/ml ACTIMID™ for 24 hours. Cells were then washed, resuspended in autologous plasma, and administered intravenously to recipient adult SJL/L mice (Jackson Laboratories) that had bone marrow ablation produced by lethal irradiation (900cGy) according to standard methods. Such irradiation is better than 90% lethal by 50 days post-irradiation (Ende et al., 2001, Life Sciences 69(13):1531-1539; Chen and Ende, 2000, J. Med. 31: 21-30; Ende et al., 2000, Life Sci. 67(1):53-9; Ende and Chen, 2000, Am. J. Clin. Pathol. 114: 89)."}, "[4]": {"system": "cells derived from CD34+ progenitor cells", "test": "Phagocytosis: FITC-dextran uptake (mannose receptor-mediated endocytosis)", "format": "cell-based, human", "conditions": "compared to DMSO control", "experimental": "Phagocytosis: The endocytic activity of the cells was analyzed by measuring FITC-dextran uptake. Cells were incubated with 1 mg/ml dextran-FITC (Sigma) in complete medium at 37° C. for 1 hour and 4° C. for 1 hour as a negative control. Results presented are representative of two independent experiments."}}}
{"smiles": "Nc1cccc2c1C(=O)N(C1CCC(=O)NC1=O)C2=O", "note": "(stereo not shown) [ACTIMID™, 4-(Amino)-2-(2,6-dioxo(3-piperidyl))-isoindoline-1,3-dione]", "values": [{"measurement": "up-regulation (increased proliferation) of CD34+ cells", "setting": "[1]; CB2276 and CB2417 cultures", "result": "up-regulation"}, {"measurement": "expression of CXCR4", "setting": "[1]; FACS analysis of surface proteins", "result": "inhibitory effect"}, {"measurement": "yield of cells", "setting": "[1]; IL-3, KL and G-CSF, compared with the DMSO control", "result": "slightly higher number of cells"}, {"measurement": "effect on the proliferation of CD34+ cells", "setting": "[1]; IL-3, KL and G-CSF, compared with the negative control (none)", "result": "do not have a significant effect"}, {"measurement": "CD11b+ Cell Population", "setting": "[1]; donor CB2276, 0.3 μg/ml", "result": 6.9, "unit": "%"}, {"measurement": "CD34+CD38+ Cell Population", "setting": "[1]; donor CB2276, 0.3 μg/ml", "result": 0.2}, {"measurement": "CD34+CD38− Cell Population", "setting": "[1]; donor CB2276, 0.3 μg/ml", "result": 5.9}, {"measurement": "CD11b+ Cell Population", "setting": "[1]; donor CB2276, 1 μg/ml", "result": 3.8, "unit": "%"}, {"measurement": "CD34+CD38+ Cell Population", "setting": "[1]; donor CB2276, 1 μg/ml", "result": 0.2}, {"measurement": "CD34+CD38− Cell Population", "setting": "[1]; donor CB2276, 1 μg/ml", "result": 15.0}, {"measurement": "CD11b+ Cell Population", "setting": "[1]; donor CB2276, 5 μg/ml", "result": 1.6, "unit": "%"}, {"measurement": "CD34+CD38+ Cell Population", "setting": "[1]; donor CB2276, 5 μg/ml", "result": 0.2}, {"measurement": "CD34+CD38− Cell Population", "setting": "[1]; donor CB2276, 5 μg/ml", "result": 17.3}, {"measurement": "CD11b+ Cell Population", "setting": "[1]; donor CB2417, 0.3 μg/ml", "result": 8.4, "unit": "%"}, {"measurement": "CD34+CD38+ Cell Population", "setting": "[1]; donor CB2417, 0.3 μg/ml", "result": 0.2}, {"measurement": "CD34+CD38− Cell Population", "setting": "[1]; donor CB2417, 0.3 μg/ml", "result": 5.9}, {"measurement": "CD11b+ Cell Population", "setting": "[1]; donor CB2417, 1 μg/ml", "result": 3.9, "unit": "%"}, {"measurement": "CD34+CD38+ Cell Population", "setting": "[1]; donor CB2417, 1 μg/ml", "result": 0.8}, {"measurement": "CD34+CD38− Cell Population", "setting": "[1]; donor CB2417, 1 μg/ml", "result": 12.0}, {"measurement": "CD11b+ Cell Population", "setting": "[1]; donor CB2417, 5 μg/ml", "result": 2.5, "unit": "%"}, {"measurement": "CD34+CD38+ Cell Population", "setting": "[1]; donor CB2417, 5 μg/ml", "result": 0.1}, {"measurement": "CD34+CD38− Cell Population", "setting": "[1]; donor CB2417, 5 μg/ml", "result": 14.7}, {"measurement": "CD38 status of the majority of CD34+ and CD34− cells", "setting": "[1]; treated cell populations", "result": "CD38−"}, {"measurement": "level of CD11b expression by mean immunofluorescence (MIF)", "setting": "[1]; treated cells", "result": "decreased"}, {"measurement": "generation of erythropoietic colonies (BFU-E and CFU-E)", "setting": "[2]", "result": "suppress"}, {"measurement": "generation of leukocyte and platelet forming colonies (CFU-GM)", "setting": "[2]", "result": "augmenting"}, {"measurement": "total colony forming unit (CFU-Total) production", "setting": "[2]", "result": "enhancing"}, {"measurement": "survival of transplanted PLNC, UCBNC and BMNC", "setting": "[3]; ACTIMID pre-treatment of cells", "result": "increases the survival"}, {"measurement": "# of Animals Dead at 50 days", "setting": "[3]; PLNC 5 × 10^6 + ACTIMID pre-treatment (10 g/ml, 24 hours) intravenous, 4 animals irradiated (900cGy)", "result": 0}, {"measurement": "% Starting Body Weight at 50 days", "setting": "[3]; PLNC 5 × 10^6 + ACTIMID pre-treatment intravenous", "result": 102, "unit": "%"}, {"measurement": "# of Animals Dead at 50 days", "setting": "[3]; UCBNC 10 × 10^6 + ACTIMID pre-treatment intravenous, 3 animals irradiated (900cGy)", "result": 0}, {"measurement": "% Starting Body Weight at 50 days", "setting": "[3]; UCBNC 10 × 10^6 + ACTIMID pre-treatment intravenous", "result": 84, "unit": "%"}, {"measurement": "phagocytic capacity at day 12", "setting": "[4]; compound from day 1 to day 12", "result": "strong decrease"}, {"measurement": "phagocytic capacity at day 12", "setting": "[4]; compound from day 6 to day 12", "result": "comparable"}]}
